Values quoted from earlier work in paper PMC7751758, “Repurposing Sigma-1 Receptor Ligands for COVID-19 Therapy?” (Frontiers in Pharmacology, 2020).
Entries after “also recorded” stand apart in the source; their conditions may differ.

What was measured:
HCoV-OC43 [1] = conditions: mothers treated daily with chloroquine (15 mg/kg); ref Keyaerts et al., 2009
HCoV-229E = conditions: replication in cell culture, ref de Wilde et al., 2014, listed as chloroquine
COVID-19 = conditions: 2020
CHIKV = conditions: cytopathic effect induced by Chikungunya virus and other alphaviruses (Semliki Forest virus and Sindbis virus), ref Pohjala et al., 2011, listed as chloroquine
HCoV-OC43 [2] = conditions: replication in HRT-18 cells, ref Keyaerts et al., 2009
EBOV [3] = conditions: mouse, in vivo
EBOV [4] = conditions: guinea pig, in vivo
[5] = associated with bioaccumulation of the drugs; ref Palmeira et al., 2020
HIV = conditions: exposure to cocaine, by activating Sig-1R; ref Roth et al., 2005
[6] = tested on: SARS-CoV-2 in Huh-7 cells; conditions: for antiviral potency: devoid of cytotoxicity, ref Mirabelli et al., 2020
HCV = conditions: entry and assembly steps in Huh-7.5.1 cells, ref Cheng et al., 2013
Ebola = conditions: in vivo
Huh-7 cells = conditions: ref Mirabelli et al., 2020; read-out: CC50 (cell toxicity)
[7] = tested on: SARS-CoV-2 in iPSC-derived alveolar epithelial type 2 cells (iAEC2s); conditions: ref Mirabelli et al., 2020, read-out: IC50 against SARS-CoV-2

## CCN(CC)CCCC(C)Nc1ccnc2cc(Cl)ccc12 (centres unmarked) [Chloroquine]
HCoV-OC43 [1]
  HCoV-OC43-induced death in newborn mice: prevented HCoV-OC43-induced death
HCoV-229E
  Antiviral activity: Virus: inhibited the replication
Ebola virus (EBOV)
  cellular toxicity: < 30%
  viral inhibition: > 50%
COVID-19; large, randomized clinical trial in hospitalized patients, ref FDA communication
  decreasing the likelihood of death or speeding recovery: no benefit
CHIKV
  Antiviral activity: Virus: inhibition of the cytopathic effect
SARS-CoV
  Antiviral activity: Virus: inhibited the replication of SARS-CoV; also recorded: in vitro activity
HCoV-OC43 [2]
  Antiviral activity: Virus: inhibited HCoV-OC43 replication
EBOV [3]
  survival of infected mice: increased survival
MERS-CoV
  Antiviral activity: Virus: in vitro activity
EBOV [4]
  survival: none of the tested doses increased survival
[5]
  side effects: serious retinopathies and cardiopathies
Sigma-1 receptor; read-out: Sigma-1 receptor affinity IC50
  IC50: 2.3 µM
Sigma-1 receptor; read-out: Sigma-1 receptor affinity Ki
  Ki: 0.109 µM

## COC(=O)[C@H]1[C@@H](OC(=O)c2ccccc2)C[C@@H]2CC[C@H]1N2C [cocaine]
HIV
  HIV infection: enhance HIV infection

## CCCCc1oc2ccccc2c1C(=O)c1cc(I)c(OCCN(CC)CC)c(I)c1 [Amiodarone]
[6]
  antiviral potency: below 1 µM
HCV
  Antiviral activity: Virus: inhibit
Ebola
  case fatality rate compared with local historical data: decrease in case fatality rate
Ebola virus (EBOV)
  viral inhibition: > 50%
COVID-19; case report, off-label short therapy 5 days with supportive measures, ref Castaldo et al.
  outcome of a patient with COVID-19-related respiratory failure: recovered
SARS-CoV
  Antiviral activity: Virus: inhibit the spreading in vitro of SARS-CoV
EBOV [3]
  survival of infected mice: increased survival

## Cc1cc(OCCN2CCOCC2)nn1-c1ccc2ccccc2c1 [E-52862 (S1RA)]
[6]
  antiviral potency: below 1 µM
[6]; ref Mirabelli et al., 2020, read-out: IC50 against SARS-CoV-2
  IC50: 0.222 µM
Huh-7 cells
  CC50: > 5 µM
[7]
  IC50: 1 µM
